Measurements: ChEMBL document CHEMBL3286146, “Prediction of anti-tumor chemical probes of a traditional Chinese medicine formula by HPLC fingerprinting combined with molecular docking” (Eur J Med Chem, 2014)

Columns and labels:
[1] = Retention time of the compound by chromatography; assay type: physicochemical
[2] = biological target: Tumor necrosis factor (Homo sapiens, UniProt P01375); assay: Binding affinity to TNF-alpha (unknown origin)
[3] = test system: HepG2; assay: Anticancer activity against human HepG2 cells assessed as cell viability after 48 hrs by MTT assay; assay type: functional, cell-based; conditions: HepG2, 48 h
[4] = Binding affinity to Bcl-xL (unknown origin); design: species or system Homo sapiens
[5] = biological target: Interleukin-2 (Homo sapiens, UniProt P60568); assay: Binding affinity to IL-2 (unknown origin)
[6] = test system: HepG2; assay: Anticancer activity against human HepG2 cells assessed as cell viability after 24 hrs by MTT assay; assay type: functional, cell-based; conditions: HepG2, 24 h

Tumor necrosis factor, sequence (P01375 whole entry): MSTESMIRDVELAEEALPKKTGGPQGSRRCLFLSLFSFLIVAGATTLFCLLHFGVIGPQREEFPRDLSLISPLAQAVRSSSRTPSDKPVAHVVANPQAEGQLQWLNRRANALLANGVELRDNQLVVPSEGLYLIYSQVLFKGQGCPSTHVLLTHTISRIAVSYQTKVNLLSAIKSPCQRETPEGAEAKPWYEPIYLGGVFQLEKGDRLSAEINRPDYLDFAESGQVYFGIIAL
Interleukin-2, sequence (P60568 whole entry): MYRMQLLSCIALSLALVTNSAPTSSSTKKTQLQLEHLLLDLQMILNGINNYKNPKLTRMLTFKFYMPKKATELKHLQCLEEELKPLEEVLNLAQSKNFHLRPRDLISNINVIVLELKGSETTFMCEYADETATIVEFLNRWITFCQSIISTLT

Compound	Kd [4]	Kd [5]	IC50 [6]	Retention_time [1]	Kd [2]	IC50 [3]
CC(CC(=O)C[C@@H](C)[C@H]1CC(=O)[C@@]2(C)C3=C(C(=O)C[C@]12C)[C@@]1(C)CCC(=O)C(C)(C)[C@@H]1C[C@@H]3O)C(=O)O (stereo partly specified) [GANODERIC ACID D]				45.7 min	18.6 nM	22.9 µM
O=C(NS(=O)(=O)c1ccc(NCCSc2ccccc2)c([N+](=O)[O-])c1)c1ccc(-c2ccc(F)cc2)cc1	810 nM					
CC(CC(=O)C[C@@H](C)[C@H]1CC(=O)[C@@]2(C)C3=C(C(=O)C[C@]12C)[C@@]1(C)CC[C@H](O)C(C)(C)[C@@H]1C[C@@H]3O)C(=O)O (stereo partly specified) [GANODERIC ACID B]				47.5 min	8.81 nM	97.4 µM
COc1ccc(-c2coc3cc(O)ccc3c2=O)cc1O [CALYCOSIN]				34.5 min		> 100 µM
CC(=O)O[C@H]1CC[C@]2(C)[C@H]3CC=C4[C@@H]5CC(C)(C)CC[C@]5(C(=O)O)CC[C@@]4(C)[C@]3(C)CC[C@H]2C1(C)C [ACETYL OLEANOLIC ACID]				39.8 min		> 100 µM
C[C@H](CC(=O)C[C@@H](C)[C@H]1C[C@H](O)[C@@]2(C)C3=C(C(=O)C[C@]12C)[C@@]1(C)CC[C@H](O)C(C)(C)[C@@H]1C[C@@H]3O)C(=O)O [GANODERIC ACID C2]				49.8 min	8.39 nM	> 100 µM
C[C@H](CC(=O)C[C@@H](C)[C@H]1C[C@H](O)[C@@]2(C)C3=C(C(=O)C[C@]12C)[C@@]1(C)CCC(=O)C(C)(C)[C@@H]1C[C@@H]3O)C(=O)O [GANODERIC ACID A]				50.4 min	8.53 nM	38.7 µM
CC(=O)O[C@@H]1C(=O)C2=C(C(=O)C[C@H]3C(C)(C)[C@@H](O)CC[C@]23C)[C@]2(C)C(=O)C[C@H]([C@H](C)CC(=O)CC(C)C(=O)O)[C@@]12C (stereo partly specified) [GANODERIC ACID H]				51.1 min	2.45 nM	70.3 µM
CC(CC(=O)C[C@@H](C)[C@H]1CC(=O)[C@@]2(C)C3=C(C(=O)[C@@H](O)[C@]12C)[C@@]1(C)CC[C@H](O)C(C)(C)[C@@H]1C[C@@H]3O)C(=O)O (stereo partly specified) [GANODERIC ACID G]				46.5 min		85.6 µM
C[C@@H]1CC[C@@]2(OC1)O[C@H]1C[C@H]3[C@@H]4CC=C5C[C@@H](O[C@@H]6O[C@H](CO)[C@@H](O)[C@H](O[C@@H]7O[C@H](CO)[C@@H](O)[C@H](O)[C@H]7O)[C@H]6O)CC[C@]5(C)[C@H]4CC[C@]3(C)[C@H]1[C@@H]2C				16.9 min		
CC(=O)O[C@@H]1C(=O)C2=C(C(=O)C[C@H]3C(C)(C)C(=O)CC[C@]23C)[C@]2(C)C(=O)C[C@H]([C@H](C)CC(=O)CC(C)C(=O)O)[C@@]12C (stereo partly specified) [GANODERIC ACID F]			19.6 µM	54.4 min	2.69 nM	
O=c1cc(-c2ccc(O)cc2)oc2cc(O[C@@H]3O[C@H](CO)[C@@H](O)[C@H](O)[C@H]3O)cc(O)c12 [APIGETRIN]	76.2 nM		90.6 µM	28.6 min	200 nM	
O=c1cc(-c2ccc(O)c(O)c2)oc2cc(O)cc(O)c12 [LUTEOLIN]			80.8 µM	38.1 min		
C[C@H](CCC=C(CO)CO)[C@H]1CC[C@@]2(C)C3=CC[C@H]4C(C)(C)C(=O)CC[C@]4(C)C3=CC[C@]12C [GANODERIOL F]				10.3 min	16.8 nM	20.7 µM
CC(C)(O)[C@@H]1CC[C@](C)([C@H]2[C@@H](O)C[C@@]3(C)[C@@H]4C[C@H](O[C@@H]5O[C@H](CO)[C@@H](O)[C@H](O)[C@H]5O)[C@H]5C(C)(C)[C@@H](O[C@@H]6OC[C@@H](O)[C@H](O)[C@H]6O)CC[C@@]56C[C@@]46CC[C@]23C)O1	0.126 nM			28.6 min		> 100 µM

Now from value to compound, other results behind:

Kd [4]	Kd [5]	IC50 [6]	Compound	Retention_time [1]	Kd [2]	IC50 [3]
9.89 nM	20 nM	20.8 µM	O=c1cc(-c2ccc(O)c(O)c2)oc2cc(O[C@@H]3O[C@H](CO)[C@@H](O)[C@H](O)[C@H]3O)cc(O)c12 [GALUTEOLIN]	31.2 min	790 nM	
110 nM	35.6 nM		COc1ccc(-c2coc3cc(O[C@@H]4O[C@H](CO)[C@@H](O)[C@H](O)[C@H]4O)ccc3c2=O)cc1O	26.4 min	1820 nM	> 100 µM
170 nM	120 nM		COc1ccc(-c2coc3cc(O[C@@H]4O[C@H](CO)[C@@H](O)[C@H](O)[C@H]4O)ccc3c2=O)cc1 [ONONIN]	39.3 min		40.8 µM
		12.5 µM	COc1cccc2c1C(=O)c1c(O)c3c(c(O)c1C2=O)C[C@@](O)(C(=O)CO)C[C@@H]3O[C@H]1C[C@H](N)[C@H](O)[C@H](C)O1 [DOXORUBICIN]			
2.4 nM	2.59 nM		C/C=C1\[C@H](O[C@@H]2O[C@H](CO)[C@@H](O)[C@H](O)[C@H]2O)OC=C(C(=O)OC)[C@H]1CC(=O)OC[C@H]1O[C@@H](OCCc2ccc(O)cc2)[C@H](O)[C@@H](O)[C@@H]1O	13.5 min		> 100 µM
7750 nM	5470 nM	60.5 µM	COc1ccc(-c2coc3cc(O)ccc3c2=O)cc1 [FORMONONETIN]	48.5 min		
	0.0289 nM	30.3 µM	C[C@@H]1CC[C@@]2(OC1)O[C@H]1C[C@H]3[C@@H]4CC=C5C[C@@H](O[C@@H]6O[C@H](CO)[C@@H](O)[C@H](O)[C@H]6O)CC[C@]5(C)[C@H]4CC[C@]3(C)[C@H]1[C@@H]2C [DISOGLUSIDE]			
	3380 nM	61.2 µM	O=c1c(-c2ccc(O)cc2)coc2cc(O[C@@H]3O[C@H](CO)[C@@H](O)[C@H](O)[C@H]3O)ccc12 [DAIDZIN]	8.61 min		
